Experimental data reported in US20210379040A1, “COMBINATION TREATMENT OF LIVER DISORDERS” (Terns Pharmaceuticals, Inc., priority 2020, published 2021).
Where two headings read alike, the source gives them in different places. Marks after values point to notes of the source that are not given here. Each block holds one compound with its values, some of them ahead of it.

Key:
[1] = PK/PD profile, 1 mg/kg oral for 7 consecutive days; format: in vivo; settings: cynomolgus monkeys; for Cmax / Tmax / AUC(0-t): cynomolgus monkey, plasma, po, 1 mg/kg, oral 1 mg/kg daily; for AUC(0-t): read-out: AUC0-24
[2] = system: mouse model of NASH; test: Mouse model of NASH (high fat diet + CCl4); format: in vivo, C57/BL6J mice
[3] = system: liver gene expression (lipid metabolism and fatty acid transport genes); test: Rat CDHFD+NaNO2 NASH model: liver whole transcriptome RNAseq (DEGs); format: in vivo, male Wistar rats; settings: Compound 2 25 mg/kg, Compound 1 3 mg/kg
Description: Animal handling: After arrival, the rats were left for a 2-week acclimation period, during which they were accustomed to the animal facility staff and trained on the procedure of oral gavage. […] Rats were then treated with test compounds for an additional 8 weeks while on CDHFD. […] Final Sacrifice: Half of the animals of each treatment group were terminated on day 84. The other half of the animals in each group were terminated on the following day, day 85. On the day of sacrifice the animals were fasted for 2 hours and received a final treatment with the respective test substance. After the final compound treatment, the animals had no more access to food until sacrifice. At 4 hours after the last administration all animals were sacrificed and livers were sampled for further analysis. Sampling and analysis: Small liver pieces were harvested into RNAlater (Thermo Fisher Scientific Dreieich Germany) and stored at −20° C. prior to RNA sequencing (RNAseq) at MedGenome Inc. RNAseq analysis was performed on liver tissue by Illumina sequencing using standard methodologies. […] Alignment was performed using STAR (v2.7.3a) aligner and reads mapping to ribosomal and mitochondrial genome were removed prior to alignment. Raw read counts were estimated using HTSeq (v0.11.1) and normalized using DESeq2 (v2.22.2). Differentially expressed genes (DEGs) were determined using DESeq2 (R Bioconductor package). […]

[4] = system: FXR-regulated gene expression in human HuH7 hepatoma cells; test: cells; settings: Huh-7, 11 h
[5] = system: FXR-regulated gene expression in liver and ileum; test: Mechanism of action: tissue RNA by RT-qPCR and RNAseq after single oral dose; settings: C57BL/6 mice, single oral 10 mg/kg, 6 hours
[6] = target: T1, SSAO (Homo sapiens, UniProt Q16853); test: Biochemical activity, SSAO
T1 sequence (Q16853 1-763): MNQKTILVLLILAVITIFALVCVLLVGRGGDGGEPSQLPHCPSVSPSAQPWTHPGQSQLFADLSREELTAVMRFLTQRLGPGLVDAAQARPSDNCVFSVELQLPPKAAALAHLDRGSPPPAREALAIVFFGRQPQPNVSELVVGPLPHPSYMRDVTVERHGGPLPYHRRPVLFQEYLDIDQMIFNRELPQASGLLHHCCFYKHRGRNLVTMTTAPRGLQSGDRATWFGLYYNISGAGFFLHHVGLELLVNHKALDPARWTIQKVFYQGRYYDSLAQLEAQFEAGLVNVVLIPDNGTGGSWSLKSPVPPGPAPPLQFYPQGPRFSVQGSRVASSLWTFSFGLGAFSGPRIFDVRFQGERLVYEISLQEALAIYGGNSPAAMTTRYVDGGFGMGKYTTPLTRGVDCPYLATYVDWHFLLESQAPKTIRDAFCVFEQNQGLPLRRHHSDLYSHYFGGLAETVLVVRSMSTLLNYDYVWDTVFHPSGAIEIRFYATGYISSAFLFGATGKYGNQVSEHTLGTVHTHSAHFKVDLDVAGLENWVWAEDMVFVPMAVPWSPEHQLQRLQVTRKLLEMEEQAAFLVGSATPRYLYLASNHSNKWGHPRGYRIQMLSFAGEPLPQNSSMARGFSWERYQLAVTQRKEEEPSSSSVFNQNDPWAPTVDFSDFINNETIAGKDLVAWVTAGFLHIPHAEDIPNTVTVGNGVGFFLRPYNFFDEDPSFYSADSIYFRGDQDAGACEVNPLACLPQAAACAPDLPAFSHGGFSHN

[7] = target: T2, MAO-A (Homo sapiens, UniProt P21397); test: Biochemical activity, MAO-A
T2 sequence (P21397 1-527): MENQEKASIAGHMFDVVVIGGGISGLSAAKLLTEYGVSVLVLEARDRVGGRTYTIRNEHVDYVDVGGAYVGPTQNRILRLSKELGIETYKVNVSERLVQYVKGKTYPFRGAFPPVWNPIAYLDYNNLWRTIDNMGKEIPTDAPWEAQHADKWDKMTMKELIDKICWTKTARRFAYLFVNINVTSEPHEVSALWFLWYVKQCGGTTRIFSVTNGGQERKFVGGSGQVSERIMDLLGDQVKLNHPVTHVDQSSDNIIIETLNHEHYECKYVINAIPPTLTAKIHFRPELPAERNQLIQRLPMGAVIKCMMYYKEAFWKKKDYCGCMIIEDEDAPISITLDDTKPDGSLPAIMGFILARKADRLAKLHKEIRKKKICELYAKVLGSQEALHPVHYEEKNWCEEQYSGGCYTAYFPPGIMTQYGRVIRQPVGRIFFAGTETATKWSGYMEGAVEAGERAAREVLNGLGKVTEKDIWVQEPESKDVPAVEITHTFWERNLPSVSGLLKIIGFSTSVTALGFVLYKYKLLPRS

[8] = NASH mice, 10, 30, 100 mg/kg, vs untreated NASH mice

Structure (SMILES): Cn1cc(C(=O)O)c2ccc(N3CCC(OCc4c(-c5c(Cl)cccc5Cl)noc4C4CC4)CC3)cc21 [Compound 1]
- Cmax ([1]; Day 1): 257 ± 124 ng/mL
- Tmax ([1]; Day 1): 1.83 ± 1.17 h
- AUC(0-t) ([1]; Day 1): 1000 ± 419 ng·h/mL
- Cmax ([1]; Day 7): 221 ± 121 ng/mL
- Tmax ([1]; Day 7): 1.25 ± 0.61 h
- AUC(0-t) ([1]; Day 7): 858 ± 425 ng·h/mL
- suppression of the pharmacodynamics biomarker 7AC4 ([1]; 1 mg/kg oral, 7 consecutive days): sustained suppression
- CYP7A1 expression (CPM) Relative to Vehicle ([2]; NASH mice liver, 30 mg/kg): 0.02
- CYP8B1 expression (CPM) Relative to Vehicle ([2]; NASH mice liver, 30 mg/kg): 0.007
- liver triglycerides ([2]; NASH mice, 100 mg/kg): statistically significant reduced triglyceride levels
- serum triglyceride concentration ([2]; NASH mice, 100 mg/kg): statically significant reduction
- serum ALT level ([2]; NASH mice, 10, 30, 100 mg/kg): reduced
- serum AST level ([2]; NASH mice, 10, 30, 100 mg/kg): reduced
- ballooning (score) [2, 8]: significantly reduced
- inflammation (score) [2, 8]: significantly reduced
- steatosis (score) [2, 8]: significantly reduced
- serum total cholesterol level ([2]; NASH mice, 10, 30, and 100 mg/kg): statistically significant reduction
- NAFLD Activity Score (NAS) ([2]; NASH mice, 10, 30, or 100 mg/kg daily oral, 28 days, vs untreated NASH mice): significantly lower NAS score
- collagen, type 1, alpha 1 expression in the liver ([2]; NASH mice, 10, 30, or 100 mg/kg, vs control NASH mice): decreased
- Liver fibrosis (Sirius Red-positive area) ([2]; NASH mice, 10, 30 or 100 mg/kg, vs untreated NASH control): statistically significant reduced fibrosis
- Ppargc1a differential gene expression relative to vehicle control [3]: 0.25 log2-fold change
- EC50 ([4]; read-out: EC50, BSEP Gene induction/HuH7): 40 nM
- EC50 ([4]; read-out: EC50, FGF-19 Gene Induction/HuH7): 40 nM
- EC50 ([4]; read-out: EC50, SHP Gene induction/HuH7): 50 nM
- induction of FXR-specific genes, liver versus ileum (RT-qPCR) [5]: preferentially induces FXR-specific genes in the liver

- IC50 [6]: 6.5 nM
- IC50 [7]: > 50000 nM
Structure (SMILES): COC1CCN(c2ncc(OC/C(=C/F)CN)cn2)CC1 [Compound 2]
- Ppargc1a differential gene expression relative to vehicle control [3]: 0.51* log2-fold change
